Results taken from patent US20230255934A1, “NURR1 RECEPTOR MODULATORS AND USES THEREOF” (The Regents of the University of California, priority 2020, published 2023).
“Also recorded” adds a separate entry of the source.

Experiments:
RXRα LBD = target: T1, RXRα LBD (Homo sapiens, UniProt P19793); assay: MST binding to RXRα LBD (specificity control)
T1 construct: made in house
T1 sequence (P19793 with tags, fused parts or gaps): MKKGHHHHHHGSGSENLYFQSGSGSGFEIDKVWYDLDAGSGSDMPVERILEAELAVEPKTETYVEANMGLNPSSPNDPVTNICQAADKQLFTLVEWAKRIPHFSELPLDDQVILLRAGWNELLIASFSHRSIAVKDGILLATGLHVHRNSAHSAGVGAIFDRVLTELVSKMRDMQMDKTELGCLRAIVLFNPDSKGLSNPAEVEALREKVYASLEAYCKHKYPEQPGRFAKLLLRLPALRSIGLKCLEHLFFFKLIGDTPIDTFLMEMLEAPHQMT
Source text: The Nurr1 LBD protein, containing the N-terminal “LAP2” sequence that is recognized by a “coumarin ligase”, was expressed and purified using metal affinity and size-exclusion chromatography according to the previously reported protocol, except that the TEV cleavage step and reverse metal affinity chromatography were omitted.^1 The RXRα LBD protein, containing the N-terminal “LAP2” sequence, was expressed and purified identically to the Nurr1 LBD protein with minor modifications. Specifically, the elution of protein from Talon resin was performed by a step gradient of 10 CV each of 50 mM, 100 mM, 200 mM and 300 mM imidazole in 50 mM Tris-HCl buffer containing 300 mM NaCl at pH 7.8. Purity of protein in each fraction was analyzed by SDS PAGE and fractions eluted with 100-300 mM imidazole were pooled and concentrated. […]
Data were collected using the Monolith NT.115 System (Nanotemper), with settings for all samples at 40% excitation power and 40% MST power. The initial fluorescence was recorded for 3 sec and the thermophoresis fluorescence response was recorded for 20 sec. The data was inspected with Palmist software^5, and data points affected by initial fluorescence quenching or photobleaching were eliminated. The fluorescent response for each sample was normalized to the initial fluorescence using Palmist software to provide the values of thermophoresis (Fn). […]

[1] = target: T2, full-length Nurr1 (NBRE response element) (Mus musculus, UniProt Q06219); assay: Full-length Nurr1 NBRE luciferase reporter assay in MN9D cells; format: cell-based; details: 6 h treatment
T2 construct: a cell line derived from dopaminergic neurons which endogenously expresses full length Nurr1 and its target genes; endogenous in cells; host or cells: MN9D TET-ON cells
T2 sequence (Q06219 whole entry): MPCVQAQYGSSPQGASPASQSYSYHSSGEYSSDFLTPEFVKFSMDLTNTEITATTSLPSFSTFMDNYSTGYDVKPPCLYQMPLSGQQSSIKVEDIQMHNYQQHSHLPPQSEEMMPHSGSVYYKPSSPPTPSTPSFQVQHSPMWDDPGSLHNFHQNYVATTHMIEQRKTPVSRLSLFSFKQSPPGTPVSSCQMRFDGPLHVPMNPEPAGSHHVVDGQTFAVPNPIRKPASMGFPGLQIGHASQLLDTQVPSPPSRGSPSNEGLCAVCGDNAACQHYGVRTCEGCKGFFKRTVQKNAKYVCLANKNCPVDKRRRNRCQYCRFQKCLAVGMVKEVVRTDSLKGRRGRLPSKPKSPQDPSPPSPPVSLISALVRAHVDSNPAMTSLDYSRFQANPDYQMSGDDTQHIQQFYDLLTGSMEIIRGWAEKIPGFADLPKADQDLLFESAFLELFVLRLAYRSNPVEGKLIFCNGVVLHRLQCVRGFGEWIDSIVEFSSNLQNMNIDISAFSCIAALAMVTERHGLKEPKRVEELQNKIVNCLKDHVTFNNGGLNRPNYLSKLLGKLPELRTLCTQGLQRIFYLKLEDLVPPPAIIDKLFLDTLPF
Experimental: Luciferase Reporter Assays. These assays were executed using standard protocols. MN9D TET-ON cells (P5) were grown for 60-72 h (see above) before being seeded at 1-10^5 cell/well in 24-well plate in DMEM/F12+5% TET-ON approved FBS 3 h before transfection. Cells were transfected using Lipofectamine 2000 (Invitrogen) and plasmid DNAs according to manufacturer's instructions. Lipofectamine/DNA complexes were prepared in Opti-Mem medium (Gibco) and incubated with cells overnight. The Nurr1-LBD_Gal4-DBD expressing plasmid was prepared by subcloning the Nurr1 LBD fragment into […] plasmid (Clontech) containing GAL4 DBD. The reporter plasmid pGL4.35 (luc2P/9XGAL4 UAS/Hygro) Vector (Promega) contains nine repeats of GAL4 UAS (Upstream Activator Sequence) and drives transcription of the luciferase reporter gene luc2P in response to binding of Nurr-LBD_Gal4-DBD chimeric protein. The pRL-null (Promega) plasmid expressing renilla luciferase was used as an internal control. […] Alternatively, cells were co-transfected with the reporter plasmid NBREx3-POMC-Luc containing three copies of the NBRE sequence ([NT] ID NO:23)) subcloned into the pXP1-luc plasmid containing the minimal (positions -34 to +63) POMC promoter as described previously^7, and the pRL-null plasmid. […] Transfected cells were treated with increasing concentrations of 5-chloroindole or vehicle only for 6 h, after which time the media was aspirated and luciferase activity was measured. Cells from each well were incubated for 15 min with 220 μL/well of Dual-Glo® Luciferase Reagent (Promega) at room temperature upon rotation on the orbital shaker. […] Resulting solutions were transferred to a white opaque 96-well plate (65 μL/well; 3 wells/sample) and firefly luciferase activity was measured using Veritas Microplate Luminometer (Turner BioSystems, Sunnyvale, Calif.). […] Renilla luciferase activity was measured after 20 min of incubation of the plate inside the luminometer. Experimental values are expressed as the average of firefly/renilla luciferase activity±standard deviation (for three independent biological replicates). […]

Compound: Clc1ccc2[nH]ccc2c1 [5-chloroindole]
- Binding to the RXRα LBD (in words) (RXRα LBD): does not exhibit saturable binding
- Luciferase production, full-length Nurr1 NBRE reporter [1]: stimulates production of luciferase; also recorded: stimulates the activity of Nurr1
